Measured values as given in US12508300B2, “Acylated GLP-1 derivative” (Sciwind Biosciences Co., Ltd., priority 2019, dated 2025).
Read-outs that look alike come from different tables or passages of the source. *1 amine or outer side, *2 acyl side, *3 side chain or, on linkers, in order; H or OH if unused. Where a SMILES comes first, the peptide text is derived from it. Where no end group is shown, it is not given here. Side-chain parts run from the residue outwards. The star is where a group is joined. C18 diacid = O=C(O)CCCCCCCCCCCCCCCCC(=O)*; γGlu = O=C(O)[C@H](CCC(=O)[*:2])N[*:1]; AEEA = NCCOCCOCC(=O)O

Tests used:
Format in all cases: in vivo
db/db mice [1] = assay: Fasting blood glucose after single injection in type II diabetic db/db mice (FIG. 1); conditions: 0.05 mg/kg s.c. single, day 4 and day 5
Description: The dosage is 0.05 mg/kg for each, and the administration time is set as 0 h. Fasting blood glucose is measured after fasting for 6-8 h every day, and the fasting blood glucose after administration is measured every day until the fasting blood glucose value of each animal of the test group recovers to the value measured before administration. The blood glucose value measured before administration is called the basal blood glucose value, and is set as 0. Change of the fasting blood glucose (Δ: delta)=Blood glucose value after administration-Basal blood glucose value before administration.

CD-1 mice = conditions: 0.15 mg/kg s.c.
Description: Twenty-eight healthy female CD-1 mice aged 4-6 weeks are selected and divided into 4 groups, and they are injected subcutaneously with M4, M5, M7 and M0 at a dose of 0.15 mg/kg body weight.

ICR mice = system: ICR mice; design: G-AUC: unit not given here
Description: 20% glucose is intragastrically administered every day according to the time schedule of 4 h, 1 d, 2 d, 3 d, 4 d, and 5 d, at a dose of 2 g/kg body weight, and fasting for 6 hours before administering the glucose; and blood is respectively collected from the tip of the tail at 0 h, 0.5 h, 1 h and 2 h after giving the 20% glucose, then measuring the blood glucose value in real time by using Roche blood glucose test paper.

db/db mice [2] = assay: Glucose-lowing effect of different doses in type II diabetic db/db mice (fasting, random blood glucose, OGTT G-AUC); conditions: for Average changes of the blood glucose area under the curve after administration: OGTT
Description: The administration time is set as 0 h, and the fasting blood glucose and OGTT (oral glucose tolerance assay) are determined after fasting for 7-8 h every day, then 10% glucose is intragastrically administered at 1 g/kg body weight, and then blood is collected from the tip of the tail to measure the blood glucose in real time at 0, 0.5, 1, and 2 h after glucose load. After administration, the blood glucose is measured every day before fasting as random blood glucose, until the fasting blood glucose value of each animal of the test group recovers to the value before administration. All of the basal blood glucose value, random blood glucose value, and the blood glucose area under the curve (G-AUC) value determined before administration are bases for evaluating the efficacy of the medicament, and they are set as 0.
Change of the blood glucose (Δ: delta)=Blood glucose value after administration-Basal blood glucose value before administration.
Change of the blood glucose area under the curve (Δ: delta)=blood glucose area under the curve after administration-blood glucose area under the curve before administration.

CC[C@H](C)[C@H](NC(=O)[C@H](Cc1ccccc1)NC(=O)[C@H](CCC(=O)O)NC(=O)[C@H](CCCNC(=N)N)NC(=O)[C@H](C)NC(=O)[C@H](C)NC(=O)[C@H](CCC(N)=O)NC(=O)[C@H](CCC(=O)O)NC(=O)[C@H](CCC(=O)O)NC(=O)[C@H](CC(C)C)NC(=O)[C@H](Cc1ccc(O)cc1)NC(=O)[C@H](CO)NC(=O)[C@H](CO)NC(=O)[C@@H](NC(=O)[C@H](CC(=O)O)NC(=O)[C@H](CO)NC(=O)[C@@H](NC(=O)[C@H](Cc1ccccc1)NC(=O)[C@@H](NC(=O)CNC(=O)[C@H](CCC(=O)O)NC(=O)[C@@H](NC(=O)[C@@H](N)Cc1c[nH]cn1)[C@@H](C)O)[C@@H](C)O)[C@@H](C)O)C(C)C)C(=O)N[C@@H](CCCCNC(=O)COCCOCCNC(=O)COCCOCCNC(=O)CC[C@H](NC(=O)CCCCCCCCCCCCCCCCC(=O)O)C(=O)O)C(=O)N[C@@H](Cc1c[nH]c2ccccc12)C(=O)N[C@@H](CC(C)C)C(=O)N[C@H](C(=O)N[C@@H](CCCNC(=N)N)C(=O)NCC(=O)N[C@@H](CCCNC(=N)N)C(=O)NCC(=O)O)C(C)C [M13] (H-HTEGTFTSDVSSYLEEQAAREFIK([AEEA-AEEA-γGlu-C18 diacid])WLVRGRG-OH; N-terminus and C-terminus assumed)
glucose-lowing effect compared with Semaglutide (FIG. 1) (db/db mice [1]): better than that of Semaglutide

N-ε^26-[2-(2-[2-(2-[2-(2[4-(17-carboxyheptadecanoylamino)-4(s)-carboxybutyrylamino]ethoxy)ethoxy]acetylamino)ethoxy]ethoxy)acetyl]Val^8Glu^22Lys^26Arg^34-GLP-1(7-37) peptide (HVEGTFTSDVSSYLEEQAAK([AEEA-AEEA-γGlu-C18 diacid])EFIAWLVRGRG) [M0, Lys at position 26, disclosed in CN107033234A]
duration of glucose-lowing effect in normal mice (CD-1 mice; from Table 4): about 3 days | Inhibition rate (blood glucose) (CD-1 mice; Table 4, CD-1 mice, 6 h): 38.47% | Inhibition rate (blood glucose) (CD-1 mice; Table 4, CD-1 mice, 30 h): 33.79% | Inhibition rate (blood glucose) (CD-1 mice; Table 4, CD-1 mice, 54 h): 25.18% | Inhibition rate (blood glucose) (CD-1 mice; Table 4, CD-1 mice, 78 h): 13.43% | Inhibition rate (blood glucose) (CD-1 mice; Table 4, CD-1 mice, 102 h): −1.05% | Inhibition rate (blood glucose) (CD-1 mice; Table 5 (second experiment), CD-1 mice, 6 h): 26.71% | Inhibition rate (blood glucose) (CD-1 mice; Table 5 (second experiment), CD-1 mice, 30 h): 33.57% | Inhibition rate (blood glucose) (CD-1 mice; Table 5 (second experiment), CD-1 mice, 54 h): 17.32% | Inhibition rate (blood glucose) (CD-1 mice; Table 5 (second experiment), CD-1 mice, 78 h): 8.97% | Inhibition rate (blood glucose) (CD-1 mice; Table 5 (second experiment), CD-1 mice, 102 h): −12.89% | G-AUC (ICR mice; 0 h (before administration)): 18.0 ± 1.9 | time the glucose-lowing effect is maintained (ICR mice; 0.15 mg/kg s.c. single): 3 days | G-AUC (ICR mice; 0.15 mg/kg s.c. single, 4 h): 11.1 ± 1.2 | Inhibition rate (blood glucose) (ICR mice; 0.15 mg/kg s.c. single, 4 h): 38.47% | G-AUC (ICR mice; 0.15 mg/kg s.c. single, 1 d): 11.9 ± 0.7 | Inhibition rate (blood glucose) (ICR mice; 0.15 mg/kg s.c. single, 1 d): 33.79% | G-AUC (ICR mice; 0.15 mg/kg s.c. single, 2 d): 13.5 ± 1.1 | Inhibition rate (blood glucose) (ICR mice; 0.15 mg/kg s.c. single, 2 d): 25.18% | G-AUC (ICR mice; 0.15 mg/kg s.c. single, 3 d): 15.6 ± 1.3 | Inhibition rate (blood glucose) (ICR mice; 0.15 mg/kg s.c. single, 3 d): 13.43% | G-AUC (ICR mice; 0.15 mg/kg s.c. single, 4 d): 18.2 ± 1.1 | Inhibition rate (blood glucose) (ICR mice; 0.15 mg/kg s.c. single, 4 d): 0.60% | time after administration at which G-AUC returns to the base before administration (db/db mice [2]; 0.015 mg/kg dosage group): 27 h | time after administration at which fasting blood glucose returns to the basal blood glucose base (db/db mice [2]; 0.015 mg/kg dosage group): 51 h | time after administration at which random blood glucose returns to the base before administration (db/db mice [2]; 0.015 mg/kg dosage group): 67 h | Average changes of fasting blood glucose after administration (db/db mice [2]; 0.015 mg/kg s.c., 3 h): -3.5 mM | Average changes of random blood glucose after administration (db/db mice [2]; 0.015 mg/kg s.c., 6 h): -15.7 mM | Average changes of random blood glucose after administration (db/db mice [2]; 0.015 mg/kg s.c., 19 h): -13.5 mM | Average changes of fasting blood glucose after administration (db/db mice [2]; 0.015 mg/kg s.c., 27 h): -2.7 mM | Average changes of random blood glucose after administration (db/db mice [2]; 0.015 mg/kg s.c., 43 h): -10.1 mM | Average changes of fasting blood glucose after administration (db/db mice [2]; 0.015 mg/kg s.c., 51 h): -2.4 mM | Average changes of random blood glucose after administration (db/db mice [2]; 0.015 mg/kg s.c., 67 h): -3.1 mM | Average changes of fasting blood glucose after administration (db/db mice [2]; 0.015 mg/kg s.c., 75 h): 2.5 mM | Average changes of random blood glucose after administration (db/db mice [2]; 0.015 mg/kg s.c., 91 h): -0.1 mM | Average changes of fasting blood glucose after administration (db/db mice [2]; 0.015 mg/kg s.c., 99 h): 3.9 mM | Average changes of random blood glucose after administration (db/db mice [2]; 0.015 mg/kg s.c., 115 h): 4.9 mM | Average changes of fasting blood glucose after administration (db/db mice [2]; 0.015 mg/kg s.c., 123 h): 3.7 mM | Average changes of random blood glucose after administration (db/db mice [2]; 0.015 mg/kg s.c., 139 h): 5.9 mM | Average changes of fasting blood glucose after administration (db/db mice [2]; 0.015 mg/kg s.c., 147 h): 9.8 mM | time after administration at which G-AUC returns to the base before administration (db/db mice [2]; 0.15 mg/kg dosage group): 51 h | time after administration at which fasting blood glucose returns to the basal blood glucose base (db/db mice [2]; 0.15 mg/kg dosage group): 75 h | time after administration at which random blood glucose returns to the base before administration (db/db mice [2]; 0.15 mg/kg dosage group): 67 h | Average changes of fasting blood glucose after administration (db/db mice [2]; 0.15 mg/kg s.c., 3 h): -4.1 mM | Average changes of random blood glucose after administration (db/db mice [2]; 0.15 mg/kg s.c., 6 h): -15.7 mM | Average changes of random blood glucose after administration (db/db mice [2]; 0.15 mg/kg s.c., 19 h): -14.8 mM | Average changes of fasting blood glucose after administration (db/db mice [2]; 0.15 mg/kg s.c., 27 h): -3.0 mM | Average changes of random blood glucose after administration (db/db mice [2]; 0.15 mg/kg s.c., 43 h): -14.1 mM | Average changes of fasting blood glucose after administration (db/db mice [2]; 0.15 mg/kg s.c., 51 h): -3.2 mM | Average changes of random blood glucose after administration (db/db mice [2]; 0.15 mg/kg s.c., 67 h): -7.1 mM | Average changes of fasting blood glucose after administration (db/db mice [2]; 0.15 mg/kg s.c., 75 h): -0.7 mM | Average changes of random blood glucose after administration (db/db mice [2]; 0.15 mg/kg s.c., 91 h): 1.7 mM | Average changes of fasting blood glucose after administration (db/db mice [2]; 0.15 mg/kg s.c., 99 h): 1.4 mM | Average changes of random blood glucose after administration (db/db mice [2]; 0.15 mg/kg s.c., 115 h): 4.5 mM | Average changes of fasting blood glucose after administration (db/db mice [2]; 0.15 mg/kg s.c., 123 h): 4.4 mM | Average changes of random blood glucose after administration (db/db mice [2]; 0.15 mg/kg s.c., 139 h): 7.8 mM | Average changes of fasting blood glucose after administration (db/db mice [2]; 0.15 mg/kg s.c., 147 h): 6.7 mM | Average changes of the blood glucose area under the curve after administration (db/db mice [2]; 0.015 mg/kg s.c., 3 h): -9.0 mmol/L/h | Average changes of the blood glucose area under the curve after administration (db/db mice [2]; 0.015 mg/kg s.c., 27 h): -5.2 mmol/L/h | Average changes of the blood glucose area under the curve after administration (db/db mice [2]; 0.015 mg/kg s.c., 51 h): 1.1 mmol/L/h | Average changes of the blood glucose area under the curve after administration (db/db mice [2]; 0.015 mg/kg s.c., 75 h): 8.2 mmol/L/h | Average changes of the blood glucose area under the curve after administration (db/db mice [2]; 0.015 mg/kg s.c., 99 h): 7.9 mmol/L/h | Average changes of the blood glucose area under the curve after administration (db/db mice [2]; 0.015 mg/kg s.c., 123 h): 13.0 mmol/L/h | Average changes of the blood glucose area under the curve after administration (db/db mice [2]; 0.015 mg/kg s.c., 147 h): 21.9 mmol/L/h | Average changes of the blood glucose area under the curve after administration (db/db mice [2]; 0.15 mg/kg s.c., 3 h): -10.3 mmol/L/h | Average changes of the blood glucose area under the curve after administration (db/db mice [2]; 0.15 mg/kg s.c., 27 h): -10.2 mmol/L/h | Average changes of the blood glucose area under the curve after administration (db/db mice [2]; 0.15 mg/kg s.c., 51 h): -7.1 mmol/L/h | Average changes of the blood glucose area under the curve after administration (db/db mice [2]; 0.15 mg/kg s.c., 75 h): 1.5 mmol/L/h | Average changes of the blood glucose area under the curve after administration (db/db mice [2]; 0.15 mg/kg s.c., 99 h): 3.9 mmol/L/h | Average changes of the blood glucose area under the curve after administration (db/db mice [2]; 0.15 mg/kg s.c., 123 h): 9.9 mmol/L/h | Average changes of the blood glucose area under the curve after administration (db/db mice [2]; 0.15 mg/kg s.c., 147 h): 16.0 mmol/L/h
